Marks after values point to notes of the source that are not given here. Values belong to the molecule of their own block, whether it stands above or below them.
Key:
physchem = assay: physchem
From the text: A trace pH=6.0, B trace pH=9.0. Excitation at 640 nm, slit widths 10 nm, 5×10^−7 M in water/CrEL.
FIG. 6. […] Excitation at 640 nm, slit widths 20 nm, 5×10^−7 M in water/CrEL. INaCl=150 mmol/L.

MDA-MB-231 cells [1] = assay: Confocal imaging of cell internalization and intracellular on/off switching of 8a; format: cell-based
From the text: The difference in averaged whole cell red fluorescence taken from off-cells to on-cells was six-fold (FIG. 7).

[2] = UV-visible absorption spectra; format: physicochemical; conditions: for λabs: longest-wavelength band, from compound data
[3] = Fluorescence emission spectra and quantum yield; format: physicochemical; conditions: for λmax emiss.: 5 × 10^−7 M, excitation 640 nm, slit widths 5 nm
MDA-MB-231 cells [4] = assay: Cellular uptake of 16 and 17, CLSM imaging; format: cell-based; conditions: 5 μM; for cellular uptake: 1 hour incubation, DMEM; for subcellular localisation: 1 hour, 3-D reconstruction, DAPI co-staining
Protocol: These spectroscopic properties correlate perfectly to the optical requirements of commercially available confocal laser scanning microscopy (CLSM) instruments and small animal optical imaging instruments. Cellular uptake of DMEM solutions of 16 and 17 were utilised to illustrate their potential for in vitro imaging. Compounds 16 and 17 were incubated with MDA-MB-231 cells for 1 hour at 5 μM concentration and the excess dye was removed by washing with PBS before visualisation.
(§1) MDA-MB-231 cells were seeded into a 8 well chambered microscopy slide and they were grown overnight in DMEM media at 37° C. in the presence of 5% CO2. The media was then removed and 16 and 17 (5 μM) was added, followed by an incubation period of 1 hour in the dark. Cells were then washed with PBS to remove excess compound. Prior to visualization, cells were fixed in 3.7% formaldehyde solution, co-stained with DAPI and a coverslip was mounted onto the microscopy slide. In a similar way, E. coli cells were incubated with 21 (4 μM) in the dark for 10 minutes. The bacterial cells were washed with PBS and An aliquot of this solution was suspended onto a microscopy slide and allowed to dry. Before imaging, a coverslip was mounted onto the microscopy slide. Images were obtained using an LSM510 META confocal laser scanning microscope equipped with 63× numerical aperture 1.4 objective. DAPI was excited at 364 nm and detected with a band-pass filter 385-470 nm, whilst 16, 17 and 21 were excited at 633 nm and their fluorescence was detected through a 650 nm long-pass filter.

E. coli cells = assay: Bacterial cell uptake of 21, confocal imaging; format: cell-based, Escherichia coli; conditions: gram-negative; 4 μM, 10 minutes
Protocol: as §1
(§2) It was envisaged that the bis-cationic nature of sensitizer 21 would be optimal for uptake into prokaryotic cells thereby broadening their utility. […] Confocal imaging confirmed the binding of 21 to both gram-positive and negative bacterial cells (FIGS. 28a, 28b).

S. aureus cells = assay: Bacterial cell uptake of 21, confocal imaging; format: cell-based, Staphylococcus aureus; conditions: gram-positive; 4 μM, 10 minutes
Protocol: as §1, §2

[5] = 730 nm, excitation 640 nm, 5×10^−7 M in water/CrEL

SMILES: OC[C@H]1O[C@@H](n2cc(COc3ccc(-c4cc(-c5ccccc5)c5n4[B-](F)(F)[N+]4=C(c6ccc(O)cc6)C=C(c6ccccc6)C4=N5)cc3)nn2)[C@H](O)[C@@H](O)[C@H]1O [Compound 8a]
- pKa (physchem): 6.9
- fluorescence intensity difference between pH 6.6 and 8 (physchem; [5]): 6 fold
- fluorescence intensity difference from pH 6.1 to 7.2 (physchem; [5]): greater than 2 fold
- intracellular emission after addition of basic buffer (MDA-MB-231 cells [1]; aqueous carbonate buffer pH 8.0): almost complete quenching
- subcellular localisation of red emission (MDA-MB-231 cells [1]; incubation 1 h, DAPI co-staining): localised to the cytosol
- intracellular emission after addition of acidic buffer (MDA-MB-231 cells [1]; pH 6.6 buffer): re-established
- difference in averaged whole cell red fluorescence from off-cells to on-cells (MDA-MB-231 cells [1]; pH 8.0 versus pH 6.6 buffer): six-fold
- λmax abs. ([2]; CH3OH, 5 × 10^−6 M): 687 nm

SMILES: O=C(O)COc1ccc(C2=[N+]3C(=Nc4c(-c5ccccc5)cc(-c5ccc(OCC(=O)O)cc5)n4[B-]3(F)F)C(c3ccccc3)=C2)cc1 [Compound 16]
- Φf ([3]; CHCl3): 0.30
- λmax emiss. ([3]; DMEM): 722 nm
- λmax emiss. ([3]; MeOH): 715 nm
- λmax emiss. ([3]; PBS/BSA (4×10^−4 M BSA)): 718 nm
- cellular uptake (MDA-MB-231 cells [4]): efficiently taken up by cells
- subcellular localisation (MDA-MB-231 cells [4]): primarily to the cytoplasm
- λmax abs. ([2]; CHCl3, 1 × 10^−6 M): 681 nm
- λmax abs. ([2]; DMEM, 1 × 10^−6 M): 694 nm
- λmax abs. ([2]; MeOH, 1 × 10^−6 M): 681 nm
- λmax abs. ([2]; PBS/BSA, 1 × 10^−6 M): 692 nm

SMILES: CCN(CC)Cc1ccc(C2=CC(c3ccc(OC)cc3)=[N+]3C2=Nc2c(-c4ccc(CN(CC)CC)cc4)cc(-c4ccc(OC)cc4)n2[B-]3(F)F)cc1 [Compound 20]
- ε ([2]; CHCl3, at 691 nm): 76,000 Lmol^−1 cm^−1
- λabs ([2]; CHCl3): 691 nm

SMILES: CC[N+](C)(CC)Cc1ccc(C2=CC(c3ccc(OC)cc3)=[N+]3C2=Nc2c(-c4ccc(C[N+](C)(CC)CC)cc4)cc(-c4ccc(OC)cc4)n2[B-]3(F)F)cc1.[I-].[I-] [Compound 21]
- Φf ([3]; CHCl3): 0.22
- λmax emiss. ([3]; CHCl3): 735 nm
- λmax emiss. ([3]; DMEM): 737 nm
- λmax emiss. ([3]; MeOH): 732 nm
- λmax emiss. ([3]; PBS/BSA (4×10^−4 M BSA)): 730 nm
- λmax abs. ([2]; CHCl3, 1 × 10^−6 M): 702 nm
- λmax abs. ([2]; DMEM, 1 × 10^−6 M): 709 nm
- λmax abs. ([2]; MeOH, 1 × 10^−6 M): 702 nm
- λmax abs. ([2]; PBS/BSA, 1 × 10^−6 M): 706 nm
- cellular uptake / binding (E. coli cells): sufficient for cellular uptake
- cellular uptake / binding (S. aureus cells): sufficient for cellular uptake

Now from value to molecule, other results behind:

- λmax abs. ([2]; CH3OH, 5 × 10^−6 M): 687 nm
SMILES: O=C(O)CCCn1cc(COc2ccc(C3=NC(=Nc4[nH]c(-c5ccc(O)cc5)cc4-c4ccccc4)C(c4ccccc4)=C3)cc2)nn1 [Compound 8b, 4-[4-(4-[5-[5-(4-Hydroxyphenyl)-3-phenyl-1H-pyrrol-2-ylimino]-4-phenyl-5H-pyrrol-2-yl]-phenoxymethyl)-[1,2,3]triazol-1-yl]butyric acid]

- λmax abs. ([2]; CH3OH, 5 × 10^−6 M): 687 nm
SMILES: CC(C)(C)OC(=O)NCCn1cc(COc2ccc(C3=NC(=Nc4[nH]c(-c5ccc(O)cc5)cc4-c4ccccc4)C(c4ccccc4)=C3)cc2)nn1 [Compound 8c, {2-[4-(4-{5-[5-(4-Hydroxyphenyl)-3-phenyl-1H-pyrrol-2-ylimino]-4-phenyl-5H-pyrrol-2-yl}-phenoxymethyl)-[1,2,3]triazol-1-yl]ethyl}carbamic acid t-butyl ester]

- fluorescence quantum yield Φf ([3]; CHCl3, 1 as standard): 0.36
- λemiss ([3]; CHCl3, from compound data): 717 nm
- Φf ([3]; ethanol, 1 used as standard): 0.23
- λmax emiss. ([3]; ethanol): 714 nm
- ε×10^−3 ([2]; CHCl3, at 689 nm): 87.1
- λabs ([2]; CHCl3): 689 nm
SMILES: COCCOCCOCCOc1ccc(-c2cc(-c3ccccc3)c3n2[B-](F)(F)[N+]2=C(c4ccc(OCCNC(=O)OC(C)(C)C)cc4)C=C(c4ccccc4)C2=N3)cc1 [Compound 9]

- Φf ([3]; CHCl3): 0.31
- λmax emiss. ([3]; CHCl3): 726 nm
- λmax emiss. ([3]; DMEM): 728 nm
- λmax emiss. ([3]; PBS/BSA (4×10^−4 M BSA)): 718 nm
- λmax abs. ([2]; CHCl3, 1 × 10^−6 M): 694 nm
- λmax abs. ([2]; CHCl3, 1 × 10^−6 M, as tetra-butylammonium salt): 694^e nm
- λmax abs. ([2]; DMEM, 1 × 10^−6 M): 694 nm
- λmax abs. ([2]; MeOH, 1 × 10^−6 M): 687 nm
- λmax abs. ([2]; PBS/BSA, 1 × 10^−6 M): 692 nm
SMILES: O=S(=O)(O)CCCOc1ccc(C2=[N+]3C(=Nc4c(-c5ccccc5)cc(-c5ccc(OCCCS(=O)(=O)O)cc5)n4[B-]3(F)F)C(c3ccccc3)=C2)cc1 [Compound 17]
- cellular uptake (MDA-MB-231 cells [4]): efficiently taken up by cells
- subcellular localisation (MDA-MB-231 cells [4]): primarily to the cytoplasm

Source: US8907107B2 (Hae Therapeutics Limited, priority 2009, dated 2014)
